From patent US11739098B2 (BRISTOL-MYERS SQUIBB COMPANY, priority 2017, dated 2023)

Columns and labels:
Type in all cases: cell-based
human TLR7 = target: T1, human TLR7 (Homo sapiens, UniProt Q9NYK1); assay: TLR7 inhibition reporter assay (HEK-Blue cells, SEAP reporter, gardiquimod stimulation); details: HEK-Blue cells overexpressing human TLR7, SEAP reporter, gardiquimod 7.5 μM
T1 construct: host or cells: HEK-Blue cells (HEK293-derived reporter line)
T1 sequence (Q9NYK1 27-1049): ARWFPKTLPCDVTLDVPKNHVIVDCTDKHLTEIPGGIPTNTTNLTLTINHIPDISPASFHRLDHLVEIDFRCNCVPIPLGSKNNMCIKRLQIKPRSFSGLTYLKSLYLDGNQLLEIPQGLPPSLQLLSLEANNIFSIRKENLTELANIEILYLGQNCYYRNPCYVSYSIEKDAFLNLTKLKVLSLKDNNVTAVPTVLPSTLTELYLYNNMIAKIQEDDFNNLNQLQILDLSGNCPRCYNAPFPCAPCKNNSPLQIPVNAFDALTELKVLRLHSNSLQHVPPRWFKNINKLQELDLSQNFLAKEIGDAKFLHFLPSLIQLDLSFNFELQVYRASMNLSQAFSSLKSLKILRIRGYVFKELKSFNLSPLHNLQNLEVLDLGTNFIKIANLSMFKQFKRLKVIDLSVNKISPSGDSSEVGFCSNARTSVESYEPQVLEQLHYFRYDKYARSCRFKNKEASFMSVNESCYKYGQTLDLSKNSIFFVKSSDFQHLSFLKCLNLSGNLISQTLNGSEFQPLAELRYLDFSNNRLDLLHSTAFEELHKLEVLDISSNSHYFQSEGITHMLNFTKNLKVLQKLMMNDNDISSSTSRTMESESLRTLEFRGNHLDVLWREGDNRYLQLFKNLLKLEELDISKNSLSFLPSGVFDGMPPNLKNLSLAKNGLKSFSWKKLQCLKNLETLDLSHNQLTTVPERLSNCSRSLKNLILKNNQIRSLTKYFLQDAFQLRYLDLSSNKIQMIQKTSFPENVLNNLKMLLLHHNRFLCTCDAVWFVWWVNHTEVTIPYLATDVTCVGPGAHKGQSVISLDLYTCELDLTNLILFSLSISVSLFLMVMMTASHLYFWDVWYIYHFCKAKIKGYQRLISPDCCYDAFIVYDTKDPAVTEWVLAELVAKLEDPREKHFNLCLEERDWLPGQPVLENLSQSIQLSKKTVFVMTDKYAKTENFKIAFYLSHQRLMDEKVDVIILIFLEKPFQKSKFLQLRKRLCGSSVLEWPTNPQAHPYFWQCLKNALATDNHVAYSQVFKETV
Summary of the method: (§1)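 HEK-Blue cells overexpressing the receptor, with NF-κB/AP-1-driven SEAP, were pre-treated 30 min at room temperature with compound (0.05 nM–50 μM), then stimulated with gardiquimod 7.5 μM (TLR7), R848 15.9 μM (TLR8) or ODN2006 5 nM (TLR9). SEAP was read after 22 h at 37 °C as percent inhibition.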

human TLR8 = target: T2, human TLR8 (Homo sapiens, UniProt Q9NR97); assay: TLR8 inhibition reporter assay (HEK-Blue cells, SEAP reporter, R848 stimulation); details: HEK-Blue cells overexpressing human TLR8, SEAP reporter, R848 15.9 μM
T2 construct: host or cells: HEK-Blue cells (HEK293-derived reporter line)
T2 sequence (Q9NR97 27-1041): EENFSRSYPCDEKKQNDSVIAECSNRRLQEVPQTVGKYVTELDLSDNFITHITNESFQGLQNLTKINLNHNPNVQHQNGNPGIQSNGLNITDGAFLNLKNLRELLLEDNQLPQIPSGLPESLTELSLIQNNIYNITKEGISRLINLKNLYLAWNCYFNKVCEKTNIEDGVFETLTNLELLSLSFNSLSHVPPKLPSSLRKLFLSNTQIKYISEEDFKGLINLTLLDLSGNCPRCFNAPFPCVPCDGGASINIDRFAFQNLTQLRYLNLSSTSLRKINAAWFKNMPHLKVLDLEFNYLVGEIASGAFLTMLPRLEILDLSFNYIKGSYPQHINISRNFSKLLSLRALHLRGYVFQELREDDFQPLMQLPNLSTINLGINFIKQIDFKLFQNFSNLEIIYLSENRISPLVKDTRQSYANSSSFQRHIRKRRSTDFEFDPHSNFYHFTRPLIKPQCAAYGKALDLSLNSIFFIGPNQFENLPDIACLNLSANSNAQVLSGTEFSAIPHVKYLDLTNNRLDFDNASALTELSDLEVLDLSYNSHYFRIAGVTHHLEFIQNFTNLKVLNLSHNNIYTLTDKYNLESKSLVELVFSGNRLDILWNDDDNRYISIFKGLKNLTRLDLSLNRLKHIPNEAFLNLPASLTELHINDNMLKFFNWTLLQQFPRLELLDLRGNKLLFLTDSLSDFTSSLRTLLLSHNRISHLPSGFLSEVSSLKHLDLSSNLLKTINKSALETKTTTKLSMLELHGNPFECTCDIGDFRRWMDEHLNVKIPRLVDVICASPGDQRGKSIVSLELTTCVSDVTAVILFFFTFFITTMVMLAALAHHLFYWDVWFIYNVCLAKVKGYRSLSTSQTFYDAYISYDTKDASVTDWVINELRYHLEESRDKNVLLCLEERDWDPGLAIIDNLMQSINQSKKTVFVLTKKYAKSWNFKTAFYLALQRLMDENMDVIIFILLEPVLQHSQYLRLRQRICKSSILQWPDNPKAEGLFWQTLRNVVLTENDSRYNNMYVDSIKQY
Summary of the method: as §1

human TLR9 = target: T3, human TLR9 (Homo sapiens, UniProt Q9NR96); assay: TLR9 inhibition reporter assay (HEK-Blue cells, SEAP reporter, ODN2006 stimulation); details: HEK-Blue cells overexpressing human TLR9, SEAP reporter, ODN2006 5 nM
T3 construct: host or cells: HEK-Blue cells (HEK293-derived reporter line)
T3 sequence (Q9NR96 26-1032): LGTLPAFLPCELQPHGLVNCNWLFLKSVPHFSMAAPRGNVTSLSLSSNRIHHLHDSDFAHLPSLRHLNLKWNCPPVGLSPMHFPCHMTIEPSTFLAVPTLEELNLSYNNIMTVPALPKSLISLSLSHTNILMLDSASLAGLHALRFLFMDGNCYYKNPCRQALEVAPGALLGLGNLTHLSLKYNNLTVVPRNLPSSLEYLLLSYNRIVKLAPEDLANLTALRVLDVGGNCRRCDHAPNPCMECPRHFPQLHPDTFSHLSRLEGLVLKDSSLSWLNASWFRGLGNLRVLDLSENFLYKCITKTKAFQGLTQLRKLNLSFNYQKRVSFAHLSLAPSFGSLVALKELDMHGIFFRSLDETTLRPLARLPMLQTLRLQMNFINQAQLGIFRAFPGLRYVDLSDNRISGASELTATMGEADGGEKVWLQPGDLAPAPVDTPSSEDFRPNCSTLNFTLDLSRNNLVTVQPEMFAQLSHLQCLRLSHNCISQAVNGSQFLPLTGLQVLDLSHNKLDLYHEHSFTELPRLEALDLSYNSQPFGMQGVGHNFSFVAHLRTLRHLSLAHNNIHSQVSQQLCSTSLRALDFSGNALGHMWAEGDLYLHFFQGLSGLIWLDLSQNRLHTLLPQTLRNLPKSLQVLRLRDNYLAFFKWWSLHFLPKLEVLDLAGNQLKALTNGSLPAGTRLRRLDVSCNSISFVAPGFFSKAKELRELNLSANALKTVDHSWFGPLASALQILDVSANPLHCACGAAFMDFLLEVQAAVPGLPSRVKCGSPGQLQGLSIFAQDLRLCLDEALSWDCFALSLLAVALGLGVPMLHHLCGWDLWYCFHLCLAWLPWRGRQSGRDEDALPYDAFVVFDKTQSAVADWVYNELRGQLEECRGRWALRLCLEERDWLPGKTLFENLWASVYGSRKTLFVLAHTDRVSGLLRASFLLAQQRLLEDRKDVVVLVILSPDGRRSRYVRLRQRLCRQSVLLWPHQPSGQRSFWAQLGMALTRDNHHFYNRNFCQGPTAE
Summary of the method: as §1

IC50 (human TLR7)	IC50 (human TLR8)	IC50 (human TLR9)	SMILES
< 100 nM	100 to 1000 nM	1000 to 50000 nM	CC(C)c1c(-c2cnc3c(cnn3C)c2)[nH]c2ccc(C3CCN(C(=O)CN(C)C)CC3)cc12 [Example 504, 2-(dimethylamino)-1-(4-(3-isopropyl-2-(1-methyl-1H-pyrazolo[3,4-b]pyridin-5-yl)-1H-indol-5-yl)piperidin-1-yl)ethan-1-one]
100 to 1000 nM	100 to 1000 nM	100 to 1000 nM	CC(C)c1c(-c2ccnc3[nH]ncc23)[nH]c2ccc(C3CCN(CCCN4CCCCC4)CC3)cc12 [Example 848, 4-(3-isopropyl-5-(1-(3-(piperidin-1-yl)propyl)piperidin-4-yl)-1H-indol-2-yl)-1H-pyrazolo[3,4-b]pyridine]
100 to 1000 nM	100 to 1000 nM	1000 to 50000 nM	CC(C)c1c(-c2cccn3ncnc23)[nH]c2ccc(C3CCN(C(=O)CN(C)C)CC3)cc12 [Example 514, 1-(4-(2-([1,2,4]triazolo[1,5-a]pyridin-8-yl)-3-isopropyl-1H-indol-5-yl)piperidin-1-yl)-2-(dimethylamino)ethan-1-one]
< 100 nM	< 100 nM	1000 to 50000 nM	CC(C)c1c(-c2cc(Cl)c3ncccc3c2)[nH]c2ccc(C3CCN(C(=O)CN(C)C)CC3)cc12 [Example 512, 1-(4-(2-(8-chloroquinolin-6-yl)-3-isopropyl-1H-indol-5-yl)piperidin-1-yl)-2-(dimethylamino)ethan-1-one]
> 50000 nM	> 3130 nM	1000 to 50000 nM	CNCCN1CCC(c2ccc3[nH]c(-c4ccc5c(c4)OCCN5C)c(C)c3c2)CC1 [Example 673, N-methyl-2-(4-(3-methyl-2-(4-methyl-3,4-dihydro-2H-benzo[b][1,4]oxazin-7-yl)-1H-indol-5-yl)piperidin-1-yl)ethan-1-amine]
< 100 nM	< 100 nM	1000 to 50000 nM	CC(C)c1c(-c2cc(C(F)(F)F)c3nccn3c2)[nH]c2ccc(C3CCN(C(C)C)CC3)cc12 [Example 942, 6-(3-isopropyl-5-(1-isopropylpiperidin-4-yl)-1H-indol-2-yl)-8-(trifluoromethyl)imidazo[1,2-a]pyridine]
< 100 nM	< 100 nM	100 to 1000 nM	Cc1cc(-c2[nH]c3ccc(C4CCN(C(=O)CCN5CC6(COC6)C5)CC4)cc3c2C(C)C)cn2nnnc12 [Example 631, 1-(4-(3-isopropyl-2-(8-methyltetrazolo[1,5-a]pyridin-6-yl)-1H-indol-5-yl)piperidin-1-yl)-3-(2-oxa-6-azaspiro[3.3]heptan-6-yl)propan-1-one]
100 to 1000 nM	100 to 1000 nM	100 to 1000 nM	CC(C)c1c(-c2cnc3nccn3c2)[nH]c2ccc(C3CCNCC3)cc12 [Example 200, 6-(3-isopropyl-5-(piperidin-4-yl)-1H-indol-2-yl)imidazo[1,2-a]pyrimidine]
100 to 1000 nM	100 to 1000 nM	> 50000 nM	CC(C)c1c(-c2ccnc3[nH]ncc23)[nH]c2ccc(C3CCN(Cc4cc(F)cnc4Cl)CC3)cc12 [Example 913, 4-(5-(1-((2-chloro-5-fluoropyridin-3-yl)methyl)piperidin-4-yl)-3-isopropyl-1H-indol-2-yl)-1H-pyrazolo[3,4-b]pyridine]
< 100 nM	100 to 1000 nM	100 to 1000 nM	CC(C)c1c(-c2ccc3cnnn3c2)[nH]c2ccc(C3CCNCC3)cc12 [Example 79, 6-(3-isopropyl-5-(piperidin-4-yl)-1H-indol-2-yl)-[1,2,3]triazolo[1,5-a]pyridine]
< 100 nM	< 100 nM	1000 to 50000 nM	Cc1cc(-c2[nH]c3ccc(C4CCN(CCCS(C)(=O)=O)CC4)cc3c2C(C)C)cn2nnnc12 [Example 787, 6-(3-isopropyl-5-(1-(3-(methylsulfonyl)propyl)piperidin-4-yl)-1H-indol-2-yl)-8-methyltetrazolo[1,5-a]pyridine]
1000 to 50000 nM	> 3130 nM	100 to 1000 nM	CNCCN1CCC(c2ccc3[nH]c(-c4ccc5scnc5c4)c(C)c3c2)CC1 [compound 659]
100 to 1000 nM	100 to 1000 nM	100 to 1000 nM	CCc1c(-c2ccnc3[nH]cc(C)c23)[nH]c2ccc(C3CCNCC3)cc12 [Example 217, 4-(3-ethyl-5-(piperidin-4-yl)-1H-indol-2-yl)-3-methyl-1H-pyrrolo[2,3-b]pyridine]
100 to 1000 nM	100 to 1000 nM	1000 to 50000 nM	CC(C)c1c(-c2cnc3[nH]nc(N)c3c2)[nH]c2ccc(C3CCNCC3)cc12 [Example 99, 5-(3-isopropyl-5-(piperidin-4-yl)-1H-indol-2-yl)-1H-pyrazolo[3,4-b]pyridin-3-amine]
1000 to 50000 nM	100 to 1000 nM	1000 to 50000 nM	CCc1c(-c2ccnc3[nH]ncc23)[nH]c2ccc(C3CCN(Cc4cc(-c5ccccc5)on4)CC3)cc12 [Example 897, 3-((4-(3-ethyl-2-(1H-pyrazolo[3,4-b]pyridin-4-yl)-1H-indol-5-yl)piperidin-1-yl)methyl)-5-phenylisoxazole]
